Tests used:
HepG2 [1] = experiment: Anticancer activity against human HepG2 cells assessed as cell viability after 48 hrs by MTT assay; assay type: functional, cell-based; conditions: HepG2, 48 h
[2] = Retention time of the compound by chromatography; assay type: physicochemical
[3] = Binding affinity to Bcl-xL (unknown origin); design: species or system Homo sapiens
Interleukin-2 = Interleukin-2 (Homo sapiens, UniProt P60568); experiment: Binding affinity to IL-2 (unknown origin)
Tumor necrosis factor = Tumor necrosis factor (Homo sapiens, UniProt P01375); experiment: Binding affinity to TNF-alpha (unknown origin)
HepG2 [4] = experiment: Anticancer activity against human HepG2 cells assessed as cell viability after 24 hrs by MTT assay; assay type: functional, cell-based; conditions: HepG2, 24 h

Chain of Interleukin-2 (P60568 whole entry): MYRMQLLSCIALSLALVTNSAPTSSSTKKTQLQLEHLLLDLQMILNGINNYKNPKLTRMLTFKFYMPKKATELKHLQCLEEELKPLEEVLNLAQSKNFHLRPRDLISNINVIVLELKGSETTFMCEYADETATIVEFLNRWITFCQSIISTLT
Chain of Tumor necrosis factor (P01375 whole entry): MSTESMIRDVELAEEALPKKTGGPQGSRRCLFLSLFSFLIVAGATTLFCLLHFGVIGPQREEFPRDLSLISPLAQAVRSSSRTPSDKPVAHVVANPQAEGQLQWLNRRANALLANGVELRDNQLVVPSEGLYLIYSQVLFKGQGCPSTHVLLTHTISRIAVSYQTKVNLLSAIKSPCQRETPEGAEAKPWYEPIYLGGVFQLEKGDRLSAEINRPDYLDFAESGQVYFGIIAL

Question: For `CC(C)(O)[C@@H]1CC[C@](C)([C@H]2[C@@H](O)C[C@@]3(C)[C@@H]4C[C@H](O[C@@H]5O[C@H](CO)[C@@H](O)[C@H](O)[C@H]5O)[C@H]5C(C)(C)[C@@H](O[C@@H]6OC[C@@H](O)[C@H](O)[C@H]6O)CC[C@@]56C[C@@]46CC[C@]23C)O1`, which IC50 (HepG2 [1]) is on record?
Answer: > 100000 nM

Question: What about the Retention_time [2] of the same molecule?
Answer: 28.6 min

Question: And the Kd [3]?
Answer: 0.126 nM

Question: With `C/C=C1\[C@H](O[C@@H]2O[C@H](CO)[C@@H](O)[C@H](O)[C@H]2O)OC=C(C(=O)OC)[C@H]1CC(=O)OC[C@H]1O[C@@H](OCCc2ccc(O)cc2)[C@H](O)[C@@H](O)[C@@H]1O` as the molecule, how does the Kd (Interleukin-2) read?
Answer: 2.59 nM

Question: What about the IC50 (HepG2 [1]) of the same molecule?
Answer: > 100000 nM

Question: And the Retention_time [2]?
Answer: 13.5 min

Question: What about the Kd [3] of the same molecule?
Answer: 2.4 nM

Question: For `COc1ccc(-c2coc3cc(O[C@@H]4O[C@H](CO)[C@@H](O)[C@H](O)[C@H]4O)ccc3c2=O)cc1O`, which Kd (Interleukin-2) is on record?
Answer: 35.6 nM

Question: What about the IC50 (HepG2 [1]) of the same molecule?
Answer: > 100000 nM

Question: What about the Retention_time [2] of the same molecule?
Answer: 26.4 min

Question: And the Kd [3]?
Answer: 110 nM

Question: What about the Kd (Tumor necrosis factor) of the same molecule?
Answer: 1820 nM

Question: With `C[C@@H]1CC[C@@]2(OC1)O[C@H]1C[C@H]3[C@@H]4CC=C5C[C@@H](O[C@@H]6O[C@H](CO)[C@@H](O)[C@H](O[C@@H]7O[C@H](CO)[C@@H](O)[C@H](O)[C@H]7O)[C@H]6O)CC[C@]5(C)[C@H]4CC[C@]3(C)[C@H]1[C@@H]2C` as the molecule, how does the Retention_time [2] read?
Answer: 16.9 min

Question: For `O=C(NS(=O)(=O)c1ccc(NCCSc2ccccc2)c([N+](=O)[O-])c1)c1ccc(-c2ccc(F)cc2)cc1`, which Kd [3] is on record?
Answer: 810 nM

Question: With `CC(=O)O[C@H]1CC[C@]2(C)[C@H]3CC=C4[C@@H]5CC(C)(C)CC[C@]5(C(=O)O)CC[C@@]4(C)[C@]3(C)CC[C@H]2C1(C)C` [ACETYL OLEANOLIC ACID] as the molecule, how does the IC50 (HepG2 [1]) read?
Answer: > 100000 nM

Question: What about the Retention_time [2] of the same molecule?
Answer: 39.8 min

Question: With `O=c1cc(-c2ccc(O)cc2)oc2cc(O[C@@H]3O[C@H](CO)[C@@H](O)[C@H](O)[C@H]3O)cc(O)c12` [APIGETRIN] as the molecule, how does the IC50 (HepG2 [4]) read?
Answer: 90600 nM

Question: And the Retention_time [2]?
Answer: 28.6 min

Question: What about the Kd [3] of the same molecule?
Answer: 76.2 nM

Question: And the Kd (Tumor necrosis factor)?
Answer: 200 nM

Question: Which IC50 (HepG2 [1]) does the source give for `COc1ccc(-c2coc3cc(O)ccc3c2=O)cc1O` [CALYCOSIN] here?
Answer: > 100000 nM

Question: What about the Retention_time [2] of the same molecule?
Answer: 34.5 min

Question: Which results are given for `O=c1c(-c2ccc(O)cc2)coc2cc(O[C@@H]3O[C@H](CO)[C@@H](O)[C@H](O)[C@H]3O)ccc12` [DAIDZIN]?
Answer: Kd (Interleukin-2): 3380 nM; IC50 (HepG2 [4]): 61200 nM; Retention_time [2]: 8.61 min

Question: With `C[C@@H]1CC[C@@]2(OC1)O[C@H]1C[C@H]3[C@@H]4CC=C5C[C@@H](O[C@@H]6O[C@H](CO)[C@@H](O)[C@H](O)[C@H]6O)CC[C@]5(C)[C@H]4CC[C@]3(C)[C@H]1[C@@H]2C` [DISOGLUSIDE] as the molecule, how does the Kd (Interleukin-2) read?
Answer: 0.0289 nM

Question: And the IC50 (HepG2 [4])?
Answer: 30300 nM

Question: With `COc1cccc2c1C(=O)c1c(O)c3c(c(O)c1C2=O)C[C@@](O)(C(=O)CO)C[C@@H]3O[C@H]1C[C@H](N)[C@H](O)[C@H](C)O1` [DOXORUBICIN] as the molecule, how does the IC50 (HepG2 [4]) read?
Answer: 12500 nM

Question: What does the source list for `COc1ccc(-c2coc3cc(O)ccc3c2=O)cc1` [FORMONONETIN]?
Answer: Kd (Interleukin-2): 5470 nM; IC50 (HepG2 [4]): 60500 nM; Retention_time [2]: 48.5 min; Kd [3]: 7750 nM

Question: What does the source list for `O=c1cc(-c2ccc(O)c(O)c2)oc2cc(O[C@@H]3O[C@H](CO)[C@@H](O)[C@H](O)[C@H]3O)cc(O)c12` [GALUTEOLIN]?
Answer: Kd (Interleukin-2): 20 nM; IC50 (HepG2 [4]): 20800 nM; Retention_time [2]: 31.2 min; Kd [3]: 9.89 nM; Kd (Tumor necrosis factor): 790 nM

Question: Which results are given for `C[C@H](CC(=O)C[C@@H](C)[C@H]1C[C@H](O)[C@@]2(C)C3=C(C(=O)C[C@]12C)[C@@]1(C)CCC(=O)C(C)(C)[C@@H]1C[C@@H]3O)C(=O)O` [GANODERIC ACID A]?
Answer: IC50 (HepG2 [1]): 38700 nM; Retention_time [2]: 50.4 min; Kd (Tumor necrosis factor): 8.53 nM

Question: With `CC(CC(=O)C[C@@H](C)[C@H]1CC(=O)[C@@]2(C)C3=C(C(=O)C[C@]12C)[C@@]1(C)CC[C@H](O)C(C)(C)[C@@H]1C[C@@H]3O)C(=O)O` (stereo partly specified) [GANODERIC ACID B] as the molecule, how does the IC50 (HepG2 [1]) read?
Answer: 97400 nM

Question: And the Retention_time [2]?
Answer: 47.5 min

Question: And the Kd (Tumor necrosis factor)?
Answer: 8.81 nM

Question: For `C[C@H](CC(=O)C[C@@H](C)[C@H]1C[C@H](O)[C@@]2(C)C3=C(C(=O)C[C@]12C)[C@@]1(C)CC[C@H](O)C(C)(C)[C@@H]1C[C@@H]3O)C(=O)O` [GANODERIC ACID C2], which IC50 (HepG2 [1]) is on record?
Answer: > 100000 nM

Question: And the Retention_time [2]?
Answer: 49.8 min

Question: And the Kd (Tumor necrosis factor)?
Answer: 8.39 nM

Question: Which results are given for `CC(CC(=O)C[C@@H](C)[C@H]1CC(=O)[C@@]2(C)C3=C(C(=O)C[C@]12C)[C@@]1(C)CCC(=O)C(C)(C)[C@@H]1C[C@@H]3O)C(=O)O` (stereo partly specified) [GANODERIC ACID D]?
Answer: IC50 (HepG2 [1]): 22900 nM; Retention_time [2]: 45.7 min; Kd (Tumor necrosis factor): 18.6 nM

Question: What does the source list for `CC(=O)O[C@@H]1C(=O)C2=C(C(=O)C[C@H]3C(C)(C)C(=O)CC[C@]23C)[C@]2(C)C(=O)C[C@H]([C@H](C)CC(=O)CC(C)C(=O)O)[C@@]12C` (stereo partly specified) [GANODERIC ACID F]?
Answer: IC50 (HepG2 [4]): 19600 nM; Retention_time [2]: 54.4 min; Kd (Tumor necrosis factor): 2.69 nM

Question: Which results are given for `CC(CC(=O)C[C@@H](C)[C@H]1CC(=O)[C@@]2(C)C3=C(C(=O)[C@@H](O)[C@]12C)[C@@]1(C)CC[C@H](O)C(C)(C)[C@@H]1C[C@@H]3O)C(=O)O` (stereo partly specified) [GANODERIC ACID G]?
Answer: IC50 (HepG2 [1]): 85600 nM; Retention_time [2]: 46.5 min

Question: Which IC50 (HepG2 [1]) does the source give for `CC(=O)O[C@@H]1C(=O)C2=C(C(=O)C[C@H]3C(C)(C)[C@@H](O)CC[C@]23C)[C@]2(C)C(=O)C[C@H]([C@H](C)CC(=O)CC(C)C(=O)O)[C@@]12C` (stereo partly specified) [GANODERIC ACID H] here?
Answer: 70300 nM

Question: And the Retention_time [2]?
Answer: 51.1 min

Question: And the Kd (Tumor necrosis factor)?
Answer: 2.45 nM

Question: For `C[C@H](CCC=C(CO)CO)[C@H]1CC[C@@]2(C)C3=CC[C@H]4C(C)(C)C(=O)CC[C@]4(C)C3=CC[C@]12C` [GANODERIOL F], which IC50 (HepG2 [1]) is on record?
Answer: 20700 nM

Question: What about the Retention_time [2] of the same molecule?
Answer: 10.3 min

Question: And the Kd (Tumor necrosis factor)?
Answer: 16.8 nM

Question: For `O=c1cc(-c2ccc(O)c(O)c2)oc2cc(O)cc(O)c12` [LUTEOLIN], which IC50 (HepG2 [4]) is on record?
Answer: 80800 nM

Question: What about the Retention_time [2] of the same molecule?
Answer: 38.1 min

Question: Which Kd (Interleukin-2) does the source give for `COc1ccc(-c2coc3cc(O[C@@H]4O[C@H](CO)[C@@H](O)[C@H](O)[C@H]4O)ccc3c2=O)cc1` [ONONIN] here?
Answer: 120 nM

Question: And the IC50 (HepG2 [1])?
Answer: 40800 nM

Question: And the Retention_time [2]?
Answer: 39.3 min

Question: What about the Kd [3] of the same molecule?
Answer: 170 nM

From ChEMBL document CHEMBL3286146, “Prediction of anti-tumor chemical probes of a traditional Chinese medicine formula by HPLC fingerprinting combined with molecular docking” (Eur J Med Chem, 2014)
